The test system of this assay is Diabrotica balteata - larvae in the soil. The assay is described as follows: Critical concentration test/soil insects, Diabrotica balteata (Example Q). The format is in vivo. As to conditions: 10.00 ppm in soil; efficacy calculated from number of emerged maize plants. How it is done:
To produce a suitable preparation of active compound, 1 part by weight of active compound is mixed with the stated amount of solvent, the stated amount of emulsifier is added and the concentrate is diluted with water to the desired concentration. Here, the concentration of the active compound in the preparation is almost irrelevant; only the amount by weight of active compound per volume unit of soil, which is stated in ppm (mg/l), matters. The soil is filled into 0.5 l pots and these are allowed to stand at 20° C.
Immediately after preparation, 5 maize corns are placed into each pot. After 3 days, the test insects are placed into the treated soil. After a further 7 days, the efficacy is determined. The efficacy is calculated from the number of maize plants which have emerged.

As to `OC(Cc1ccccc1Cl)(Cn1nc[nH]c1=S)C1(Cl)CC1` (stereo not shown) [(49)], the “Kill in % at active compound concentrations in ppm” value was 10.00 ppm = 0%.

(Values after patent publication US7179814B2, “Agents for controlling plant pests” (priority 1998, dated 2007).)
